Measurements published in the NIST ThermoML archive (doi:10.1016/j.jct.2012.09.016).

How the values were obtained:
[1] = Liquid, Vibrating tube method
[2] = molar heat capacity at constant pressure; conditions: Liquid, Small sample (50 mg) DSC

CCCCCCN [1-hexanamine]
Conditions	mass density, [1] [kg/m3]	molar heat capacity at constant pressure, [2] [J/K/mol]
293.15 K, 100 kPa	765	–
293.15 K, 10000 kPa	771.2	–
293.15 K, 20000 kPa	777.4	–
293.15 K, 30000 kPa	783.2	–
293.15 K, 40000 kPa	788.6	–
293.15 K, 50000 kPa	793.7	–
293.15 K, 60000 kPa	798.6	–
293.15 K, 70000 kPa	803.1	–
293.15 K, 80000 kPa	807.5	–
293.15 K, 90000 kPa	811.8	–
293.15 K, 100000 kPa	815.8	–
293.15 K, 110000 kPa	819.6	–
293.15 K, 120000 kPa	823.3	–
293.15 K, 130000 kPa	826.9	–
293.15 K, 140000 kPa	830.3	–
313.15 K, 100 kPa	–	253.5
313.15 K, 20000 kPa	–	251
313.15 K, 40000 kPa	–	250.1
313.15 K, 60000 kPa	–	248.9
323.15 K, 100 kPa	–	253.7
323.15 K, 20000 kPa	–	251.5
323.15 K, 40000 kPa	–	250.5
323.15 K, 60000 kPa	–	249.3
333.15 K, 100 kPa	–	254.4
333.15 K, 20000 kPa	–	252.4
333.15 K, 40000 kPa	–	251.2
333.15 K, 60000 kPa	–	250.1
343.15 K, 100 kPa	–	255.7
343.15 K, 20000 kPa	–	253.6
343.15 K, 40000 kPa	–	252.3
343.15 K, 60000 kPa	–	251.3
353.15 K, 100 kPa	712.4	257.5
353.15 K, 10000 kPa	722.4	–
353.15 K, 20000 kPa	731.1	255.2
353.15 K, 30000 kPa	739.1	–
353.15 K, 40000 kPa	746.2	253.8
353.15 K, 50000 kPa	752.8	–
353.15 K, 60000 kPa	758.9	252.8
353.15 K, 70000 kPa	764.7	–
353.15 K, 80000 kPa	770.1	–
353.15 K, 90000 kPa	775.2	–
353.15 K, 100000 kPa	780.1	–
353.15 K, 110000 kPa	784.7	–
353.15 K, 120000 kPa	789.2	–
353.15 K, 130000 kPa	793.4	–
353.15 K, 140000 kPa	797.5	–
363.15 K, 100 kPa	703.9	259.8
363.15 K, 10000 kPa	714.4	–
363.15 K, 20000 kPa	723.6	257.2
363.15 K, 30000 kPa	731.9	–
363.15 K, 40000 kPa	739.3	255.6
363.15 K, 50000 kPa	746.2	–
363.15 K, 60000 kPa	752.6	254.7
363.15 K, 70000 kPa	758.5	–
363.15 K, 80000 kPa	764.1	–
363.15 K, 90000 kPa	769.4	–
363.15 K, 100000 kPa	774.4	–
363.15 K, 110000 kPa	779.1	–
363.15 K, 120000 kPa	783.6	–
363.15 K, 130000 kPa	787.9	–
363.15 K, 140000 kPa	792.1	–
373.15 K, 100 kPa	694.8	262.6
373.15 K, 10000 kPa	706	–
373.15 K, 20000 kPa	716	259.6
373.15 K, 30000 kPa	724.5	–
373.15 K, 40000 kPa	732.4	257.8
373.15 K, 50000 kPa	739.5	–
373.15 K, 60000 kPa	746.1	256.9
373.15 K, 70000 kPa	752.2	–
373.15 K, 80000 kPa	758.1	–
373.15 K, 90000 kPa	763.5	–
373.15 K, 100000 kPa	768.7	–
373.15 K, 110000 kPa	773.5	–
373.15 K, 120000 kPa	778.2	–
373.15 K, 130000 kPa	782.6	–
373.15 K, 140000 kPa	786.9	–
383.15 K, 100 kPa	686.1	–
383.15 K, 10000 kPa	698.2	–
383.15 K, 20000 kPa	708.6	262.3
383.15 K, 30000 kPa	717.6	–
383.15 K, 40000 kPa	725.8	260.3
383.15 K, 50000 kPa	733.3	–
383.15 K, 60000 kPa	740.2	259.5
383.15 K, 70000 kPa	746.5	–
383.15 K, 80000 kPa	752.5	–
383.15 K, 90000 kPa	758.1	–
383.15 K, 100000 kPa	763.4	–
383.15 K, 110000 kPa	768.3	–
383.15 K, 120000 kPa	773.2	–
383.15 K, 130000 kPa	777.7	–
383.15 K, 140000 kPa	782	–
393.15 K, 100 kPa	676.2	–
393.15 K, 10000 kPa	689.2	–
393.15 K, 20000 kPa	700.3	265.3
393.15 K, 30000 kPa	709.8	–
393.15 K, 40000 kPa	718.4	263.1
393.15 K, 50000 kPa	726.6	–
393.15 K, 60000 kPa	733.7	262.4
393.15 K, 70000 kPa	740.3	–
393.15 K, 80000 kPa	746.5	–
393.15 K, 90000 kPa	752.2	–
393.15 K, 100000 kPa	757.7	–
393.15 K, 110000 kPa	762.9	–
393.15 K, 120000 kPa	767.8	–
393.15 K, 130000 kPa	772.5	–
393.15 K, 140000 kPa	776.9	–
403.15 K, 100 kPa	666.9	–
403.15 K, 10000 kPa	680.9	–
403.15 K, 20000 kPa	692.5	268.8
403.15 K, 30000 kPa	702.8	–
403.15 K, 40000 kPa	711.7	266.4
403.15 K, 50000 kPa	719.9	–
403.15 K, 60000 kPa	727.2	265.7
403.15 K, 70000 kPa	734.1	–
403.15 K, 80000 kPa	740.4	–
403.15 K, 90000 kPa	746.5	–
403.15 K, 100000 kPa	752.1	–
403.15 K, 110000 kPa	757.4	–
403.15 K, 120000 kPa	762.5	–
403.15 K, 130000 kPa	767.2	–
403.15 K, 140000 kPa	771.8	–
